Regarding `CCc1cc(C(=O)c2ccccc2Cl)c(-n2c(CNC(=O)c3cc4ccccc4[nH]3)nnc2-c2ccccc2)s1`, the melting point is 230 to 232 °C.

Take `NC(=O)[C@@H]1C[C@]2(NC(=O)N(CCCN3CCC(O)CC3)C2=O)c2cc(F)ccc2O1`: the melting point is 208 to 209 °C. Then `O=C(NC1CC1)c1ccccc1C(c1ccc(O)cc1)c1ccc(O)cc1`, with 221 to 226 °C; and `COc1ccc(-c2cc(=O)n(CC=Cc3ccc(Cl)cc3)nc2-c2ccc(OC)c(F)c2)cc1F`, with 72.5 to 74.9 °C; and `N[C@@]1(C(=O)O)C[C@H](NC(=O)Nc2cccc3ccccc23)[C@H]2[C@H](C(=O)O)[C@H]21` (relative stereo), with above 275 °C.

Turning to `Cc1oc(-c2ccccc2)nc1COc1cccc(CON)c1`, the melting point was 81 to 82 °C.

For `Nc1nc(N)nc(C2CN(C(c3ccccc3)c3ccccc3)C2)n1`, the melting point was 126 to 128 °C. The same measure for `CC(C)(C(=O)OCC(=O)c1ccccc1)n1c(=O)[nH]c2ccc(F)cc2c1=O`: 192 to 193 °C; for `COc1ccc(-n2c(=O)[nH]c3c(-c4ccc(C(F)(F)F)cc4F)ncnc32)cc1`: 296 to 297 °C. In turn, `O=C1c2ccccc2C(F)(F)C(F)(F)c2ccccc21` gave a melting point of 70 to 75 °C.

Values taken from a melting point compilation (Tetko et al.; mined from patent text by program, amines drawn as free bases though some values may be those of a salt).
